Data published in patent US4670469A, “Hydroxamic acid and pharmaceutical preparations containing the same” (VEB Arzneimittelwerk Dresden, priority 1983, dated 1987).

Columns and labels:
[1] = system: aorta endothelial cells of calves; assay: Formation of lipoxygenase products of arachidonic acid in cultivated aorta endothelial cells; type: cell-based; conditions: 0.1 mM
Method: (§1) The inhibition of thrombocyte aggregation is likewise ascribed to the inhibition of lipoxygenase in the cells. It has thus been shown that the arachidonate-lipoxygenase activity of a microsome-free lysate of human thrombocyte concentrates is inhibited to the extent of 100% by means of 0.25 mM salicylhydroxamic acid. Moreover, it has been shown that also a series of further lipoxygenases are inhibited by means of the here described hydroxamic acids. The lipoxygenase from soybeans reacts the most insensitive, i.e. it is inhibited by means of 1 mM salicylhydroxamic acid at pH 7.4 to an extent of 60% and by means of 0.4 mM 2-hydroxy-1-napthylhydroxamic acid to an extent of 54%. In contrast, for the lipoxygenase from peas which come closer in their characteristics to human lipoxygenase, the following I50 -values are provided: salicyl hydroxamic acid, 5 μM, 2-hydroxy-1-napthylhydroxamic acid, 2 μM, 2(2'-napthoxy)-acethydroxamic acid, 2 μM. Moreover it has been shown that the formation lipoxygenase products of arachidonic acid in in vitro cultivated aorta endothelial cells of calves is hindered through 0.1 mM 2-hydroxy-1-napthylhydroxamic acids.

thrombocyte aggregation = assay: Arachidonic acid-induced thrombocyte aggregation in thrombocyte-rich plasma; type: cell-based, humans; conditions: Homo sapiens; 0.8 mM arachidonic acid; concentration giving total restraint of aggregation
From the text: Since with the new medicines the restraints of lipoxygenase has been identified as a molecular type of attack, also their influence on the thrombocyte-aggregation has been tested. The essential role of the lipoxygenase pathway for irreversibility of the thrombocyte aggregation is now known. (C. E. Dutilh et al. Prostaglandins and Medicine 6, 111 (1981)). The key role is attributed to the irreversibility of the thrombocyte aggregation in the pathogenesis of thrombotic illnesses. […] In the experiments, the thrombocyte aggregation was triggered either by means of arachidonic acid or by means of platelet activation factor (PAF-Acether).
The testing of the compounds for antithrombotic and thrombolytic activity follows in authentic cell systems of humans in vitro. Thrombocyte-rich plasma from the blood of healthy donors is obtained by centrifugation at 1,000×g. The measurement of the thrombocyte aggregation follows by means of an aggregometer based upon diffuse light scattering or light absorption of the produced cell aggregate. The thrombocyte-rich plasma is pre-incubated at 37° C. for 3 minutes with the active substance or substances; thereafter the thrombocyte aggregation is triggered through the addition of either 0.8 mM arachidonic acid or 1 μM platelet activation factor (PAF-acether). The preparations are then stirred with a velocity of 800 rpm. Indeed according to the employed active substance concentration there occurs either a strong delay or a complete inhibition of the thrombocyte aggregation.

lipoxygenase from peas = assay: Inhibition of lipoxygenase from peas; type: biochemical; conditions: read-out: I50
Method: as §1

[2] = biological target: T1, lipoxygenase from soybeans (Glycine max, UniProt P08170); assay: Inhibition of lipoxygenase from soybeans; type: biochemical; conditions: 0.4 mM; read-out: inhibition of soybean lipoxygenase
T1 construct: host or cells: soybeans
T1 sequence (P08170 1-839): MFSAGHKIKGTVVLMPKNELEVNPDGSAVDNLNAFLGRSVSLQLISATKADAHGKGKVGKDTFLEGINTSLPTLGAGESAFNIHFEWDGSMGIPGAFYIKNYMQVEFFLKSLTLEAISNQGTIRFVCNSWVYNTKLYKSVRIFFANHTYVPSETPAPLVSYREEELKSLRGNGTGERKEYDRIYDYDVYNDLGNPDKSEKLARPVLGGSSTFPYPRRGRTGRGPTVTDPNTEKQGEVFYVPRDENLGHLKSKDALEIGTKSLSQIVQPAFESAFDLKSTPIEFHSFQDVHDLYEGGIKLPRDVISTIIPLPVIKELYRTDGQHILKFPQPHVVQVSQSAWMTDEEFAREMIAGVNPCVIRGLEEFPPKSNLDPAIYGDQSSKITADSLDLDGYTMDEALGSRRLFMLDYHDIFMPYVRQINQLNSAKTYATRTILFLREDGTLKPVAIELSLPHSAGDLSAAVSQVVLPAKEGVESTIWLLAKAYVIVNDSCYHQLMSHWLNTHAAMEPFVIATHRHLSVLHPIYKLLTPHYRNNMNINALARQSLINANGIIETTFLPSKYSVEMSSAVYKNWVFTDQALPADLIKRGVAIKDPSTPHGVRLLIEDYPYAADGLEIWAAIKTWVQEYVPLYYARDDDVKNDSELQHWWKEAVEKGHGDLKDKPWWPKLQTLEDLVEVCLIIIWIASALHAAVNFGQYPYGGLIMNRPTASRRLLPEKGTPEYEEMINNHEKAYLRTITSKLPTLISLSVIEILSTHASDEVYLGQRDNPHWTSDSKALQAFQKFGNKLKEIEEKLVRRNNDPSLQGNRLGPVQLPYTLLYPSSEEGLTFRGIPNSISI
Method: as §1

[3] = biological target: T2, lipoxygenase from rabbit reticulocytes (Oryctolagus cuniculus, UniProt P12530); assay: Inhibition of the activity of lipoxygenase from rabbit reticulocytes (oxygen consumption, Clark electrode); type: biochemical; conditions: 25° C., pH 7.4, 0.53 mM linoleic acid, 15 min pre-incubation
T2 construct: The lipoxygenase from rabbit reticulocytes is obtained in electrophoretically and immunologically pure form; from tissue; host or cells: rabbit reticulocytes
T2 sequence (P12530 1-663): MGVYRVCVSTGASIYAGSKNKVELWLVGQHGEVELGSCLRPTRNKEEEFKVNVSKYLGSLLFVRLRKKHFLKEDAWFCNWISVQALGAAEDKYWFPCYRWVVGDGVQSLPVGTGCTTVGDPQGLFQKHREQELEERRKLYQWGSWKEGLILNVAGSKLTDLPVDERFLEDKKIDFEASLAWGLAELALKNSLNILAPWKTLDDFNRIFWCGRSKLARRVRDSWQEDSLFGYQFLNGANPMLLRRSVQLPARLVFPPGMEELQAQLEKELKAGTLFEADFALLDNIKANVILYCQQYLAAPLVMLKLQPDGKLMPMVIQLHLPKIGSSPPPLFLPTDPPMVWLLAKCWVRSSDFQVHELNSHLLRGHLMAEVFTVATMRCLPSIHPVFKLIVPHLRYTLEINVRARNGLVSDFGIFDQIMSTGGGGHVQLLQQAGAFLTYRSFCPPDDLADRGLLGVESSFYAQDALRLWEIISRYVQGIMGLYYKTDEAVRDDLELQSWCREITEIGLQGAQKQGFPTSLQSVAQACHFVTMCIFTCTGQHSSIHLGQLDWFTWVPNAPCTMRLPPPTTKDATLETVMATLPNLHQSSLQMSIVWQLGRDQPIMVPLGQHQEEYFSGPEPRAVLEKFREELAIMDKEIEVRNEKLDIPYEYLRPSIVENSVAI
Method: The lipoxygenase from rabbit reticulocytes was obtained in electrophoretically and immunologically pure form according to a technique known from the literature (S. M. Rapoport et al. Methods in Enzymology 71, 430 (1981)). The determination of lipoxygenase activity follows at 25° C. through the polarographic measurement of the oxygen consumption by means of Clark Electrode in a standardized system.
Through variation of the substance concentrations, the titration curves of the inhibition and therefrom the inhibition concentrations (I-value) of the compounds can be determined.
The testing of compounds for antiasthmatic, antiallergenic, inflammation-inhibiting and antithrombotic activity on the basis on the inhibition of the lipoxygenase reaction of the arachidonic acid cascade follows in a molecular/pharmacological test system. […] The lipoxygenase from rabbit reticulocytes is obtained in electrophoretically and immunologically pure form according to the techniques described in the literature (supra). The determination of the lipoxygenase activity follows at 25° C. through the polorographic measurement of oxygen consumption by means of a Clark-electrode in the following system: 0.1M potassiumphosphate, pH 7.4, with 0.2 percent sodium cholate and 0.53 mM linoleic acid. The enzyme concentration in the measurement preparation came to 25 nM. The compounds to be tested are dissolved in methylglycol (freshly distilled in a vacuum) and pre-incubated for 15 minutes at the measuring temperature in the absence of sodium cholate and linoleic acid. […] The enzyme reaction is started by the addition of sodium cholate and linoleic acid.

## O=C(NO)c1c(O)ccc2ccccc12 [2-hydroxy-1-naphthylhydroxanic acid, 2-hydroxy-1-naphthylhydroxamic acid]
[1]
  formation of lipoxygenase products of arachidonic acid: hindered
Thrombocyte aggregation
  IC100: 7 µM
Lipoxygenase from peas
  IC50: 2 µM
[2]
  inhibition at 400 µM: 54%
[3]; read-out: I50
  IC50: 1.6 µM
[3]; read-out: I84
  IC84: 5.2 µM
